Source: ChEMBL document CHEMBL5154672, “Design and synthesis of HDAC inhibitors to enhance the therapeutic effect of diffuse large B-cell lymphoma by improving metabolic stability and pharmacokinetic characteristics” (Eur J Med Chem, 2022)
Calls of active or inactive are those of the source. No cut-off for these calls is given here.

Legend:
Histone deacetylase 2 [1] = molecular target: T1, Histone deacetylase 2 (Homo sapiens, UniProt Q92769); assay: Inhibition of HDAC2 in human TMD8 cells assessed as histone H4 acetylation after 24 hrs by Western blot analysis; type: cell-based; conditions: dose 2.5-10 µM, DDE = dose-dependent effect
T1 sequence (Q92769 whole entry): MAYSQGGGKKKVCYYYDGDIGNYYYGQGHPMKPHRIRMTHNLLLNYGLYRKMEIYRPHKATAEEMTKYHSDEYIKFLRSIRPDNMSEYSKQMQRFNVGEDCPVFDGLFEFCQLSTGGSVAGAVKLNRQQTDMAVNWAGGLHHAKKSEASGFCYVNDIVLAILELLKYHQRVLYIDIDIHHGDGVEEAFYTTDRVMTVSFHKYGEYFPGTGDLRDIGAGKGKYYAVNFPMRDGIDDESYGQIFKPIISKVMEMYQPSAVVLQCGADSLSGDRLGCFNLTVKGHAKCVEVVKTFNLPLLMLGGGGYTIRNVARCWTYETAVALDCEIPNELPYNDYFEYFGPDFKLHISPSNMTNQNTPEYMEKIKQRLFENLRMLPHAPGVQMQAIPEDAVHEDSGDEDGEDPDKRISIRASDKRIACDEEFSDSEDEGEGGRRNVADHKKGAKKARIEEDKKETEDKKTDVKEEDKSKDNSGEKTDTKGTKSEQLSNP

TMD8 [2] = assay: Induction of apoptosis in human TMD8 cells incubated for 24 hrs by propidium iodide based flow cytometric analysis; type: functional, cell-based; conditions: dose 0.25-1 µM, DDE = dose-dependent effect
Histone deacetylase 3 [3] = molecular target: T2, Histone deacetylase 3 (Homo sapiens, UniProt O15379); assay: Inhibition of HDAC3 in human TMD8 cells assessed as histone H4 acetylation after 24 hrs by Western blot analysis; type: cell-based; conditions: dose 2.5-10 µM, DDE = dose-dependent effect
T2 sequence (O15379 whole entry): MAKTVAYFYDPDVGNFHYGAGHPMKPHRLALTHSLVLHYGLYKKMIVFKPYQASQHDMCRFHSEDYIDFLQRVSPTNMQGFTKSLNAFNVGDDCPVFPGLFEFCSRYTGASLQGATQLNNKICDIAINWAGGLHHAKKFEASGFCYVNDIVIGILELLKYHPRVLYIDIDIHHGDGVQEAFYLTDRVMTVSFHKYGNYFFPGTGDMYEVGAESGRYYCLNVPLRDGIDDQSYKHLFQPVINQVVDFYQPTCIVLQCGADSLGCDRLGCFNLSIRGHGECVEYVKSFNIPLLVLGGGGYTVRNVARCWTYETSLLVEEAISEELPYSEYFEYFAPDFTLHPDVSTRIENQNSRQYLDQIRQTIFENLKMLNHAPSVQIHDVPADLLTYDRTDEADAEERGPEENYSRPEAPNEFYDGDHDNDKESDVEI

Histone deacetylase 1 [4] = molecular target: T3, Histone deacetylase 1 (Homo sapiens, UniProt Q13547); assay: Inhibition of HDAC1 in human TMD8 cells assessed as histone H4 acetylation after 24 hrs by Western blot analysis; type: cell-based; conditions: dose 2.5-10 µM, DDE = dose-dependent effect
T3 sequence (Q13547 whole entry): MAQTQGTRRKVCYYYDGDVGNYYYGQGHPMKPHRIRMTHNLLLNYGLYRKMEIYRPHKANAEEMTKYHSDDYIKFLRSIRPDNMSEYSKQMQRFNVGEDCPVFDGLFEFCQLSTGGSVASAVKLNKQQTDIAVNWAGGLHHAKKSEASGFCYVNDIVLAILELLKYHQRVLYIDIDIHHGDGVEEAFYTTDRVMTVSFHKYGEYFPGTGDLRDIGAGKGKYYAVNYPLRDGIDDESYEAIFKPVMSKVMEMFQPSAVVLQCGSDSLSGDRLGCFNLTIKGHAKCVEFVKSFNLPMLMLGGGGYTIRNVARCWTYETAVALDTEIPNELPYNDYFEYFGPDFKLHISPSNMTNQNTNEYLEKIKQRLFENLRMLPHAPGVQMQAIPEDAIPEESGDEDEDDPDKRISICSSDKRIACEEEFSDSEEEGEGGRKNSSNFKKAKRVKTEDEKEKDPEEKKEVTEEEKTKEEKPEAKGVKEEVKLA

Histone deacetylase 1 [5] = molecular target: T3, Histone deacetylase 1; assay: Inhibition of HDAC1 in human TMD8 cells assessed as histone H3 acetylation after 24 hrs by Western blot analysis; type: cell-based; conditions: dose 2.5-10 µM, DDE = dose-dependent effect
[6] = molecular target: Histone deacetylase 11 (Homo sapiens) (UniProt Q96DB2); assay: Inhibition of HDAC11 (unknown origin) assessed as remaining activity using (Boc-(Trifluoroacetyl) Lysine-AMC) fluorogenic peptide as substrate preincubated for 10 mins followed by substrate addition for 30 mins in presence of ATP by fluoroscence assay relative to control; conditions: time 40.0 min
Sequence of Histone deacetylase 11 (Homo sapiens) (Q96DB2 whole entry): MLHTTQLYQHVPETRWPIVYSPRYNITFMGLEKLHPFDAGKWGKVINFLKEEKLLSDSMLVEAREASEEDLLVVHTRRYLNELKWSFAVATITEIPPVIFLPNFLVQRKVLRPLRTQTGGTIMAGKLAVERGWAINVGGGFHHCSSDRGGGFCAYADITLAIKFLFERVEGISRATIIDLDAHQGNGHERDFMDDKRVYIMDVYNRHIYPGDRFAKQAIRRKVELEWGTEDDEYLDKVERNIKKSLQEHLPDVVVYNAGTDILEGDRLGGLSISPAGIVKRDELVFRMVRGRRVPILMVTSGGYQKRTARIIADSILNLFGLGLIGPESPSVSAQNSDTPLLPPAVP

DLBCL = assay: Cytotoxicity against human DLBCL cells assessed as cell growth inhibition; type: functional, cell-based
[7] = molecular target: Histone deacetylase 7 (Homo sapiens) (UniProt Q8WUI4); assay: Inhibition of HDAC7 (unknown origin) assessed as remaining enzyme activity at 1 uM using Boc-(Trifluoroacetyl) Lysine-AMC fluorogenic peptide as substrate preincubated for 10 mins followed by substrate addition for 30 mins in presence of ATP by fluoroscence based assay relative to control; conditions: time 40.0 min
Sequence of Histone deacetylase 7 (Homo sapiens) (Q8WUI4 whole entry): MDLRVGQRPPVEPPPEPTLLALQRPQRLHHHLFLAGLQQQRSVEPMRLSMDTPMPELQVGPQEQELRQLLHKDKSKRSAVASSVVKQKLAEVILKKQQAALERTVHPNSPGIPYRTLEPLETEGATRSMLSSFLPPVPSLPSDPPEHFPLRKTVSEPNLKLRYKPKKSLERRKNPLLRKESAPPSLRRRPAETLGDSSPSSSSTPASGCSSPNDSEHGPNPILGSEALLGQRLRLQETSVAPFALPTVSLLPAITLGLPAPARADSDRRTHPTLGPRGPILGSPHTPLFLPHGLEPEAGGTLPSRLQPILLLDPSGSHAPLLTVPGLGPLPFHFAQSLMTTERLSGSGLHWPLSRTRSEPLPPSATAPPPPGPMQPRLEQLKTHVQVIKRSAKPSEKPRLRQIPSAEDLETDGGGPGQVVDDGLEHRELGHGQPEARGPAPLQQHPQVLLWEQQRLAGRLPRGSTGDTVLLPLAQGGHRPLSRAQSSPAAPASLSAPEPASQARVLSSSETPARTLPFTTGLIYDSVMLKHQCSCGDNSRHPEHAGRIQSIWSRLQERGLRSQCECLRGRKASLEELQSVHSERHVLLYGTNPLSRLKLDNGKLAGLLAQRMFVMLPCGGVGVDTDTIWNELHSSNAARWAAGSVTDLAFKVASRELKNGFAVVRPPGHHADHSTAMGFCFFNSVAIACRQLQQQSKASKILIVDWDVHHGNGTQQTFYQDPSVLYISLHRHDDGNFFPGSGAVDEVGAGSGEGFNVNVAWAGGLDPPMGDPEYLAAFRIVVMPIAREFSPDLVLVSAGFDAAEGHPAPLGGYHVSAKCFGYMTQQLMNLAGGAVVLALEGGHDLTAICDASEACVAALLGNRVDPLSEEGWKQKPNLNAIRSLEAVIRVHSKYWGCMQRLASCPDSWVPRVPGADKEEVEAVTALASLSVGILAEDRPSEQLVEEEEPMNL

[8] = molecular target: Protein deacetylase HDAC6 (Homo sapiens) (UniProt Q9UBN7); assay: Inhibition of HDAC6 (unknown origin) assessed as remaining enzyme activity at 1 uM using RHKK(Ac)AMC fluorogenic peptide as substrate preincubated for 10 mins followed by substrate addition for 1 hr in presence of ATP by fluoroscence based assay relative to control; conditions: time 70.0 min
Sequence of Protein deacetylase HDAC6 (Homo sapiens) (Q9UBN7 whole entry): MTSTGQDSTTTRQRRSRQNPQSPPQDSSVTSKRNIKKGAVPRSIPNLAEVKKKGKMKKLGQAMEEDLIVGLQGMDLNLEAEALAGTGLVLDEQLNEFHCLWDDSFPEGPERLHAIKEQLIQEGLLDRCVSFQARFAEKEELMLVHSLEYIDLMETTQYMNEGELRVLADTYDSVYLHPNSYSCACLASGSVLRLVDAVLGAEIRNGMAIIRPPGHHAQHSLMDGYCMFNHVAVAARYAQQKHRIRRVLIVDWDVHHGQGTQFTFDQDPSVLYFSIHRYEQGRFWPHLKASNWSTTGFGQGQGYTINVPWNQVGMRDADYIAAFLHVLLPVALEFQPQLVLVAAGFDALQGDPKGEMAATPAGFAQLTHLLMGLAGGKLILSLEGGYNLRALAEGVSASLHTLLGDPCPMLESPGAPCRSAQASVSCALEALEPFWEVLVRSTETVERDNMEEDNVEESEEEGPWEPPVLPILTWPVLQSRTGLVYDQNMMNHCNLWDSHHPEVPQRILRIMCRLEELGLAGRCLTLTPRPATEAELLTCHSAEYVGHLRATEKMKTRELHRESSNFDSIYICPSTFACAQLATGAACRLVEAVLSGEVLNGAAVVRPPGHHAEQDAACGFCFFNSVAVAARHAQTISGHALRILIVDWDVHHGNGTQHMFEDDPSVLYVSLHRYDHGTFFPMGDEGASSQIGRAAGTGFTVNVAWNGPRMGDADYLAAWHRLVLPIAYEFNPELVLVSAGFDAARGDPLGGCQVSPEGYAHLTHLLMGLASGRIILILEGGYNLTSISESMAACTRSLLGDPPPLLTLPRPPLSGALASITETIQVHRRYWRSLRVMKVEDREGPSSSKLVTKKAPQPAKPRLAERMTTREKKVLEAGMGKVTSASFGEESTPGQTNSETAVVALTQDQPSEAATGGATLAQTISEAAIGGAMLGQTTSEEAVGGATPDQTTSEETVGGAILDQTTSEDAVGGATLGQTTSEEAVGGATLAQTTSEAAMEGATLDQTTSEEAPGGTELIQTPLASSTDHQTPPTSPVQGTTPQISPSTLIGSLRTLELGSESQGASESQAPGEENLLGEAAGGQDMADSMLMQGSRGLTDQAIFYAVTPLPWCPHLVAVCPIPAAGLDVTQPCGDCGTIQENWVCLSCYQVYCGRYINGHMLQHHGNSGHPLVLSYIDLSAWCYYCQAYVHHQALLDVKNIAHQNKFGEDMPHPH

TMD8 [9] = assay: Induction of cell cycle arrest in human TMD8 cells assessed as accumulation of cells at G2/M phase incubated for 24 hrs by propidium iodide based flow cytometric analysis; type: functional; conditions: dose 0.25-1 µM, DDE = dose-dependent effect
Histone deacetylase 3 [10] = molecular target: T2, Histone deacetylase 3; assay: Inhibition of HDAC3 in human TMD8 cells assessed as histone H3 acetylation after 24 hrs by Western blot analysis; type: cell-based; conditions: dose 2.5-10 µM, DDE = dose-dependent effect
Histone deacetylase 2 [11] = molecular target: T1, Histone deacetylase 2; assay: Inhibition of HDAC2 in human TMD8 cells assessed as histone H3 acetylation after 24 hrs by Western blot analysis; type: cell-based; conditions: dose 2.5-10 µM, DDE = dose-dependent effect
TMD8 [12] = assay: Induction of apoptosis in human TMD8 cells assessed as increase in cleaved caspase-3 levels at 2.5 to 10 uM after 24 hrs by Western blot analysis; type: functional, cell-based; conditions: dose 2.5-10 µM
TMD8 [13] = assay: In vivo antitumor activity against TMD8 cells xenografted in CB.17 SCID mouse assessed as inhibition of tumor growth at 50 mg/kg/day, po for 21 consecutive days measured every 3 days by Vernier caliper; type: functional, organism-based; conditions: Homo sapiens, time 21.0 day
TMD8 [14] = assay: Induction of apoptosis in human TMD8 cells assessed as cleavage of inactive caspase-3 at 2.5 to 10 uM after 24 hrs by Western blot analysis; type: functional, cell-based; conditions: dose 2.5-10 µM
Mus musculus = assay: Upregulation of acetylated-H3 levels in CB.17 SCID mouse xenografted with human TMD8 cells at 50 to 100 mg/kg/day, po measured after 21 days by Western blot analysis; type: functional, organism-based; conditions: dose 50-100 mg/kg/day, time 21.0 day
[15] = molecular target: Histone deacetylase 9 (Homo sapiens) (UniProt Q9UKV0); assay: Inhibition of HDAC9 (unknown origin) assessed as remaining enzyme activity at 1 uM using Boc-(Trifluoroacetyl) Lysine-AMC fluorogenic peptide as substrate preincubated for 10 mins followed by substrate addition for 30 mins in presence of ATP by fluoroscence based assay relative to control; conditions: time 40.0 min
TMD8 [16] = assay: Induction of apoptosis in human TMD8 cells assessed as increase in cleaved PARP levels at 2.5 to 10 uM after 24 hrs by Western blot analysis; type: functional, cell-based; conditions: dose 2.5-10 µM
[17] = molecular target: Histone deacetylase 4 (Homo sapiens) (UniProt P56524); assay: Inhibition of HDAC4 (unknown origin) assessed as remaining enzyme activity at 1 uM using Boc-(Trifluoroacetyl) Lysine-AMC fluorogenic peptide as substrate preincubated for 10 mins followed by substrate addition for 30 mins in presence of ATP by fluoroscence based assay relative to control; conditions: time 40.0 min
[18] = molecular target: Histone deacetylase 5 (Homo sapiens) (UniProt Q9UQL6); assay: Inhibition of HDAC5 (unknown origin) assessed as remaining enzyme activity at 1 uM using Boc-(Trifluoroacetyl) Lysine-AMC fluorogenic peptide as substrate preincubated for 10 mins followed by substrate addition for 30 mins in presence of ATP by fluoroscence based assay relative to control; conditions: time 40.0 min
Sequence of Histone deacetylase 5 (Homo sapiens) (Q9UQL6 whole entry): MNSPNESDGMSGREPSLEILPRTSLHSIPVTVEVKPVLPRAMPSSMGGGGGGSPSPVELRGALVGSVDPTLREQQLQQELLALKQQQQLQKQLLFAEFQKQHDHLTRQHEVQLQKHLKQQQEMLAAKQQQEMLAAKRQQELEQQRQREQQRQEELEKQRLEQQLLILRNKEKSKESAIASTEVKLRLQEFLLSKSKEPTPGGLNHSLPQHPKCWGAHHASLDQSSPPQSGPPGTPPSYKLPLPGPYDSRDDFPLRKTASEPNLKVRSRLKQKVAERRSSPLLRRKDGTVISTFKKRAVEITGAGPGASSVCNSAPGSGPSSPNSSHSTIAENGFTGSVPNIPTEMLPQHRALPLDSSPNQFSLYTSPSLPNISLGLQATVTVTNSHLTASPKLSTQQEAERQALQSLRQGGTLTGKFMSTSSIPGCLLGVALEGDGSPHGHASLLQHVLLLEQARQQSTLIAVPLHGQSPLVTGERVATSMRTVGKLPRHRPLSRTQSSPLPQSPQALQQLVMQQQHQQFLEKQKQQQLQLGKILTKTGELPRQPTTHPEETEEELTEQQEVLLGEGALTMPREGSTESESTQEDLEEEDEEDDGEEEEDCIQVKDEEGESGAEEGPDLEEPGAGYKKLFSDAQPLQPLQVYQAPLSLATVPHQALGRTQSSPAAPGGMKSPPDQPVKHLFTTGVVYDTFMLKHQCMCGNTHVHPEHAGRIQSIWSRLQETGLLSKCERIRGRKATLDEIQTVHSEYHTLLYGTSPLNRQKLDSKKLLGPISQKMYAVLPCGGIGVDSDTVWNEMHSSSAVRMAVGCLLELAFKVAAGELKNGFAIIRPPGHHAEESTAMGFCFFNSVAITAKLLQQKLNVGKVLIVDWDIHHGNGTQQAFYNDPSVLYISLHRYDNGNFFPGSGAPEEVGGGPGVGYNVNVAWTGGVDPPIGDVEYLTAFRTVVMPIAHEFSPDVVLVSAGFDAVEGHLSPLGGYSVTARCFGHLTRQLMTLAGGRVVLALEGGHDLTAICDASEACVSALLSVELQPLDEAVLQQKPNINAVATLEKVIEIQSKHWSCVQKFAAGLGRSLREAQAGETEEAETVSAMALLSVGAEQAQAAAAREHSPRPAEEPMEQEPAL

inhibition (Histone deacetylase 2 [1]): Dde
inhibition (Histone deacetylase 3 [3]): Dde
inhibition (Histone deacetylase 1 [4]): Dde
inhibition (Histone deacetylase 1 [5]): Dde
Activity [6]: 92%
Activity [7]: 88.1%
Activity [8]: 96.9%
inhibition (Histone deacetylase 3 [10]): Dde
inhibition (Histone deacetylase 2 [11]): Dde
Activity [15]: 92.3%
Activity [17]: 81.2%
Activity [18]: 84.4%
SMILES: Nc1ccccc1NC(=O)c1ccc(CN2CCC/C(=C\c3ccccn3)C2=O)cc1
Activity (TMD8 [2]): Dde
Activity (DLBCL): Active
Activity (TMD8 [9]): Dde
Activity (TMD8 [12]): Active
Activity (TMD8 [13]): Active
Activity (TMD8 [14]): Active
Activity (Mus musculus): Active
Activity (TMD8 [16]): Active
